Patent US20250170248A1, “SMARCA DEGRADERS AND USES THEREOF” (Kymera Therapeutics, Inc., priority 2021, published 2025)

Tests used:
Assay type in all cases: cell-based
SMARCA2 [1] = target: T1, SMARCA2 (Homo sapiens, UniProt P51531); test: MSD SMARCA2 degradation in A549 cell line; conditions: for Dmax: A549, A549 cells; for Dmax / DC50: 24 h; for DC50 / SMARCA2 MSD A549 degradation 24 h: Average Dmax %: A549 cells; for DC50: read-out: SMARCA2 MSD A549 degradation 24 h: Average external-Abs DC50
T1 sequence (P51531 whole entry): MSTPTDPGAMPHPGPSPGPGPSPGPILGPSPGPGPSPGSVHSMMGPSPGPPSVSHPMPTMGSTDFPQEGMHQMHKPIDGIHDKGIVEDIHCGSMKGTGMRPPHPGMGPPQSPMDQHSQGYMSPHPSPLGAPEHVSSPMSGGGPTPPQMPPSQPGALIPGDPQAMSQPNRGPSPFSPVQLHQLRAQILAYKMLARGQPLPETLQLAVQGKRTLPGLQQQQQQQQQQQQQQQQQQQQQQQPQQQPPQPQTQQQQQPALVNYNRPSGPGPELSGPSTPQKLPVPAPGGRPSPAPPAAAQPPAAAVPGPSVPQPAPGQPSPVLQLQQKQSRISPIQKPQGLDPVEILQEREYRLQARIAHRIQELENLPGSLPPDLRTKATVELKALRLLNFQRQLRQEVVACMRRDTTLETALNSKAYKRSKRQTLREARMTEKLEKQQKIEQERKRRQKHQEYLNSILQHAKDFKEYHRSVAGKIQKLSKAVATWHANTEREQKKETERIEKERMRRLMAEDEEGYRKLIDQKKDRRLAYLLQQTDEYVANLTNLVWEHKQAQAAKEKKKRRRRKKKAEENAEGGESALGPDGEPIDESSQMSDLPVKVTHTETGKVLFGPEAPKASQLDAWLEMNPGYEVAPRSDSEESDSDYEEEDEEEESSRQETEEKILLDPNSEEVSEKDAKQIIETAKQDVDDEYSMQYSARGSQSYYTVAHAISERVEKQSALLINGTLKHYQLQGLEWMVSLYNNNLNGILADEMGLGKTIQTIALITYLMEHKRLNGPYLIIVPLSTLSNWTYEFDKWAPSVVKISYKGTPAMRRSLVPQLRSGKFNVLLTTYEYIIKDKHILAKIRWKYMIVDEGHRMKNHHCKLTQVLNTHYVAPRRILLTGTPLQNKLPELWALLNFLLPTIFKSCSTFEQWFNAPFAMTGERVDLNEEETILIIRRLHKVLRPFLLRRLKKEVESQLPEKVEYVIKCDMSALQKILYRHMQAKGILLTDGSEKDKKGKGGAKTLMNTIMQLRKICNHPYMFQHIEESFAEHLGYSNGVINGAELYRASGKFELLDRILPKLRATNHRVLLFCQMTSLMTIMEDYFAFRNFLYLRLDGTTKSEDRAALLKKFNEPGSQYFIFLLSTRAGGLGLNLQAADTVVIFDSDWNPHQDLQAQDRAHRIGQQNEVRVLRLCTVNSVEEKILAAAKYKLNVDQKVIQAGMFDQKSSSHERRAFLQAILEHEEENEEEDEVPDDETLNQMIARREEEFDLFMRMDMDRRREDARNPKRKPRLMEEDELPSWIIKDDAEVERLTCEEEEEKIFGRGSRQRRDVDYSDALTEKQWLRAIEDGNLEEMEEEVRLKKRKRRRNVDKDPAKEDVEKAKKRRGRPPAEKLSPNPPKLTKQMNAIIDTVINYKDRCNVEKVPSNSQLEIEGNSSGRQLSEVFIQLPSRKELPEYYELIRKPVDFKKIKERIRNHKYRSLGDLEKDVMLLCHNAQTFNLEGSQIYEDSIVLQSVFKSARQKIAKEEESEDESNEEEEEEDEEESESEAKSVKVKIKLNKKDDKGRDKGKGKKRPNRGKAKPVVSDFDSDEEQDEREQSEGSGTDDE
Outline: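 SMARCA2 protein remaining after 24 h exposure of A549 cells (top concentration 1000 nM, 3-fold dilutions) was measured by MSD electrochemiluminescence immunoassay of cell lysates. Results are given as binned DC50 and maximal degradation (Dmax) codes.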

SMARCA4 = target: T2, SMARCA4 (Homo sapiens, UniProt P51532); test: SMARCA4 Western blot degradation in MV4-11 cells; conditions: for Dmax: MV4-11, MV4-11 cells, read-out: SMARCA4 MSD MV411 degradation 24 h: average Dmax %; for Dmax / DC50: 24 h; for DC50: read-out: SMARCA4 MSD MV411 degradation 24 h: Mean external-Abs DC50
T2 construct: SMARCA2/SMARCA4 protein degradation selectivity in MV4-11 cells; endogenous in cells; host or cells: MV4-11
T2 sequence (P51532 whole entry): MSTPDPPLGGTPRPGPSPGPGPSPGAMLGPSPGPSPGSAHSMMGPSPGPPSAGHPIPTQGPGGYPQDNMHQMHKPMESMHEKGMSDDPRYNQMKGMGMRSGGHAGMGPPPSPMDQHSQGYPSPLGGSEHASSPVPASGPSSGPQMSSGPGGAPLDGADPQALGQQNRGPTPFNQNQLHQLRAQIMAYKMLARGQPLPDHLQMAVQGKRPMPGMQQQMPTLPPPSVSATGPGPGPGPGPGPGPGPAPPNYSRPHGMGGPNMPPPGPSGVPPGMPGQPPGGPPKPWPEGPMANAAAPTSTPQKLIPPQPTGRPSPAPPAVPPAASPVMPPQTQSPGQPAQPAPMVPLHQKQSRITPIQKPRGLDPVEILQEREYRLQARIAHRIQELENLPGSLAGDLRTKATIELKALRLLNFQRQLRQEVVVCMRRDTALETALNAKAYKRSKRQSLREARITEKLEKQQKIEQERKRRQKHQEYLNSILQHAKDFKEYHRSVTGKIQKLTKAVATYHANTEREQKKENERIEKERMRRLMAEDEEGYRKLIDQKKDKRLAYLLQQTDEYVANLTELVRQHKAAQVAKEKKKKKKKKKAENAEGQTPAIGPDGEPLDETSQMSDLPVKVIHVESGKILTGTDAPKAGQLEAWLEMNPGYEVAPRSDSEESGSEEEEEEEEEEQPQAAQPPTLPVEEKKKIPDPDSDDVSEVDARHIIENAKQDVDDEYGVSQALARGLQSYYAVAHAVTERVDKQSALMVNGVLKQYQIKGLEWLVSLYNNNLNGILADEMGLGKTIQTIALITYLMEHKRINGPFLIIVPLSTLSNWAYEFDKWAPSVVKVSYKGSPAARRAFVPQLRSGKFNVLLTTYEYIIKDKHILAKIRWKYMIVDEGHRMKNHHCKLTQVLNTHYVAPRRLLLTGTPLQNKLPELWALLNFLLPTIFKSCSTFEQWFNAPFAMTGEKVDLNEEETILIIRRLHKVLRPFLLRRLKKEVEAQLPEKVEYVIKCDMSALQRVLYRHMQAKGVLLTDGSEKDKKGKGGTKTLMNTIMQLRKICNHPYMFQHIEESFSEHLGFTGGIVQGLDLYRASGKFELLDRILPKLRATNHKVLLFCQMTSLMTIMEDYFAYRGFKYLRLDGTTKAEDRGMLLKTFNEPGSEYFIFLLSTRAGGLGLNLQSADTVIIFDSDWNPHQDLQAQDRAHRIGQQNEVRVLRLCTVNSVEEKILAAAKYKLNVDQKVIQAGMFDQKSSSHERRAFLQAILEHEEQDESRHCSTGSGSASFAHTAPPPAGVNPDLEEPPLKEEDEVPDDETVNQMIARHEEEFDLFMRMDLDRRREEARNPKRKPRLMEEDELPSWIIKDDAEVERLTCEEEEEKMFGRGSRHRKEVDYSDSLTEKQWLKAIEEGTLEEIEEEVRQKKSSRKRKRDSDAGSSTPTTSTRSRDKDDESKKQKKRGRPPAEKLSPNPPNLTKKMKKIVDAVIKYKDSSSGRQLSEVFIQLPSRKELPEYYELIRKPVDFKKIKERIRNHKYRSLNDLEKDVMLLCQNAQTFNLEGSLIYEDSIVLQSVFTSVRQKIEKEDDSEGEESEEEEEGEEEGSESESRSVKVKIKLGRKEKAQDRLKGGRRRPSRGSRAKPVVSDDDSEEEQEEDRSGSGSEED
Outline: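 Protein levels quantified by LI-COR Western blot (beta-actin loading control) in RIPA lysates of MV4-11 cells after 24 h compound exposure. Degradation reported as DC50, Dmax % at 24 h and SMARCA2 vs SMARCA4 selectivity, each binned into letter codes.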

SMARCA2 [2] = target: T1, SMARCA2; test: SMARCA2 Western blot degradation in MV4-11 cells; parameters: SMARCA2/SMARCA4 protein degradation selectivity in MV4-11 cells; endogenous in cells; host or cells: MV4-11; conditions: for Dmax: MV4-11, MV4-11 cells, read-out: SMARCA2 MSD MV411 degradation 24 h: average Dmax %; for DC50: read-out: SMARCA2 MSD MV411 degradation 24 h: Mean external-Abs DC50; for Selectivity in MV411: SMARCA2/4 selectivity

Row | Compound | Dmax (SMARCA2 [1]) | DC50 (SMARCA2 [1]) | Dmax (SMARCA4) | DC50 (SMARCA4; MV4-11 cells) | Dmax (SMARCA2 [2]; 24 h) | DC50 (SMARCA2 [2]; MV4-11 cells, 24 h) | Selectivity in MV411 (SMARCA2 [2]; MV4-11 cells) | SMARCA2 MSD A549 degradation 24 h: Average Dmax % (SMARCA2 [1]) | SMARCA4 MSD MV411 degradation 24 h: average Dmax % (SMARCA4; MV4-11 cells) | SMARCA2 MSD MV411 degradation 24 h: average Dmax % (SMARCA2 [2]; MV4-11 cells, 24 h)
1 | Cn1nccc1-c1ccc(CNC(=O)[C@@H]2C[C@@H](O)CN2C(=O)[C@@H](NC(=O)[C@H]2CC[C@H](c3ccc(-c4cnc(N5CCN6c7cc(-c8ccccc8O)nnc7NC[C@H]6C5)nc4)cc3)CC2)C(C)(C)C)cc1 (single isomer, unassigned) [I-87] | > 90% | 10 to 50 nM | > 90% | 10 to 100 nM | 70 to 90% | 10 to 100 nM | C (C (10-100 fold)) | – | – | –
2 | Cc1ncsc1-c1ccc(CNC(=O)[C@@H]2C[C@@H](O)CN2C(=O)C(c2cc(OCCCCN3CCC(c4cnc(N5CCc6[nH]c7nnc(-c8ccccc8O)cc7c6[C@H]5C)nc4)CC3)no2)C(C)C)cc1 (stereo partly drawn) [I-35] | 70 to 90% | 10 to 50 nM | 70 to 90% | 1 to 10 nM | > 90% | 1 to 10 nM | D (D (<10 fold)) | – | – | –
3 | C#Cc1ccc(CNC(=O)[C@@H]2C[C@@H](O)CN2C(=O)[C@@H](NC(=O)[C@H]2CCC3(CC2)C[C@H](N2CCC(c4cnc(N5CCN6c7cc(-c8ccccc8O)nnc7NC[C@H]6C5)nc4)CC2)C3)C(C)(C)C)c(OC)c1 (single isomer, unassigned) [I-100] | – | < 10 nM | 70 to 90% | 10 to 100 nM | > 90% | < 1 nM | C (C (10-100 fold)) | A (A (>90% degradation)) | – | –
4 | Cn1nccc1-c1ccc(CNC(=O)[C@@H]2C[C@@H](O)CN2C(=O)[C@@H](NC(=O)[C@H]2CC[C@@H](c3ccc(-c4cnc(N5CCN6c7cc(-c8ccccc8O)nnc7NC[C@H]6C5)nc4)cc3)CC2)C(C)(C)C)cc1 (single isomer, unassigned) [I-88] | > 90% | < 10 nM | > 90% | 1 to 10 nM | > 90% | < 1 nM | C (C (10-100 fold)) | – | – | –
5 | C#Cc1ccc(CNC(=O)[C@@H]2C[C@@H](O)CN2C(=O)[C@@H](OC(=O)N2CC3(CC(N4CCC(c5cnc(N6CCc7[nH]c8nnc(-c9ccccc9O)cc8c7[C@H]6C)nc5)CC4)C3)C2)C(C)(C)C)cc1 [I-138] | > 90% | < 10 nM | > 90% | 10 to 100 nM | > 90% | 1 to 10 nM | C (C (10-100 fold)) | – | – | –
6 | C#Cc1ccc(CNC(=O)[C@@H]2C[C@@H](O)CN2C(=O)[C@@H](NC(=O)N2CCC(CN3CCC(N4CCc5[nH]c6nnc(-c7ccccc7O)cc6c5[C@H]4C)CC3)CC2)C(C)(C)C)cc1 [I-198] | 70 to 90% | > 100 nM | < 50% | > 100 nM | 50 to 70% | 10 to 100 nM | C (C (10-100 fold)) | – | – | –
7 | C#Cc1ccc(CNC(=O)[C@@H]2C[C@@H](O)CN2C(=O)[C@@H](NC(=O)[C@H]2CC3(C2)C[C@H](N2CCC(N4CCC(N5CCN6c7cc(-c8ccccc8O)nnc7NC[C@H]6C5)CC4)CC2)C3)C(C)(C)C)c(O)c1 (stereo partly drawn) [I-242] | – | 50 to 100 nM | – | 10 to 100 nM | – | 1 to 10 nM | C (C (10-100 fold)) | – | – | –
8 | Cc1ncsc1-c1ccc(CNC(=O)[C@@H]2C[C@@H](O)CN2C(=O)[C@@H](NC(=O)N2CC3(CC(N4CCC(c5cnc(N6CCc7[nH]c8nnc(-c9ccccc9O)cc8c7[C@H]6C)nc5)CC4)C3)C2)C(C)(C)C)cc1 [I-58, N—((S)-1-((2S,4R)-4-hydroxy-2-((4-(4-methylthiazol-5-yl)benzyl)carbamoyl)pyrrolidin-1-yl)-3,3-dimethyl-1l-oxobutan-2-yl)-6-(4-(2-((R)-3-(2-hydroxyphenyl)-5-methyl-7,8-dihydro-5H-pyrido [3′, 4′: 4,5]pyrrolo [2,3-c]pyridazin-6(9H)-yl)pyrimidin-5-yl)piperidin-1-yl)-2-azaspiro[3.3]heptane-2-carboxamide] | > 90% | 10 to 50 nM | 50 to 70% | > 100 nM | 70 to 90% | 1 to 10 nM | B (B (>100-500 fold)) | – | – | –

The remaining lines, values ahead:

Row | Dmax (SMARCA2 [1]) | DC50 (SMARCA2 [1]) | Dmax (SMARCA4) | DC50 (SMARCA4; MV4-11 cells) | Dmax (SMARCA2 [2]; 24 h) | DC50 (SMARCA2 [2]; MV4-11 cells, 24 h) | Selectivity in MV411 (SMARCA2 [2]; MV4-11 cells) | SMARCA2 MSD A549 degradation 24 h: Average Dmax % (SMARCA2 [1]) | SMARCA4 MSD MV411 degradation 24 h: average Dmax % (SMARCA4; MV4-11 cells) | SMARCA2 MSD MV411 degradation 24 h: average Dmax % (SMARCA2 [2]; MV4-11 cells, 24 h) | Compound
9 | < 50% | > 100 nM | < 50% | > 100 nM | < 50% | > 100 nM | D (D (<10 fold)) | – | – | – | C#Cc1ccc(CNC(=O)[C@@H]2C[C@@H](O)CN2C(=O)[C@@H](NC(=O)N2CCC[C@H](CN3CCC(N4CCC(N5CCN6c7cc(-c8ccccc8O)nnc7NC[C@H]6C5)CC4)CC3)C2)C(C)(C)C)cc1 [I-256]
10 | > 90% | 10 to 50 nM | > 90% | 10 to 100 nM | > 90% | 1 to 10 nM | C (C (10-100 fold)) | – | – | – | Cc1ncsc1-c1ccc(CNC(=O)[C@@H]2C[C@@H](O)CN2C(=O)C(c2cc(N3CCC(CCN4CCC(c5cnc(N6CCc7[nH]c8nnc(-c9ccccc9O)cc8c7[C@H]6C)nc5)CC4)CC3)no2)C(C)C)cc1 (stereo partly drawn) [I-7]
11 | 70 to 90% | 50 to 100 nM | > 90% | 10 to 100 nM | > 90% | 1 to 10 nM | C (C (10-100 fold)) | – | – | – | Cc1ncsc1-c1ccc([C@H](C)NC(=O)[C@@H]2C[C@@H](O)CN2C(=O)[C@@H](NC(=O)Cc2ccc(CCCC(=O)N3CCN4c5cc(-c6ccccc6O)nnc5NC[C@H]4C3)cc2)C(C)(C)C)cc1 (single isomer, unassigned) [I-83]
12 | – | 10 to 50 nM | – | 10 to 100 nM | – | 1 to 10 nM | C (C (10-100 fold)) | A (A (>90% degradation)) | B (B (>70-90% degradation)) | B (B (>70-90% degradation)) | C#Cc1ccc(CNC(=O)[C@@H]2C[C@@H](O)CN2C(=O)[C@@H](NC(=O)[C@H]2CCC3(CC2)C[C@H](N2CCC(c4ccc(N5CCN6c7cc(-c8ccccc8O)nnc7NC[C@H]6C5)nc4)CC2)C3)C(C)(C)C)cc1 (single isomer, unassigned) [I-156]
13 | > 90% | 50 to 100 nM | 50 to 70% | > 100 nM | 70 to 90% | 1 to 10 nM | C (C (10-100 fold)) | – | – | – | C#Cc1ccc(CNC(=O)[C@@H]2C[C@@H](O)CN2C(=O)[C@@H](NC(=O)[C@H]2CCC3(CC2)C[C@H](N2CCC(N4CC5(CC(N6CCN7c8cc(-c9ccccc9O)nnc8NC[C@H]7C6)C5)C4)CC2)C3)C(C)(C)C)cc1 (single isomer, unassigned) [I-223]
14 | 50 to 70% | > 100 nM | < 50% | > 100 nM | 50 to 70% | > 100 nM | D (D (<10 fold)) | – | – | – | C#Cc1ccc([C@@H](CO)NC(=O)[C@@H]2C[C@@H](O)CN2C(=O)[C@@H](NC(=O)N2CC3(CC(N4CCC(c5cnc(N6CCc7[nH]c8nnc(-c9ccccc9O)cc8c7[C@H]6C)nc5)CC4)C3)C2)C(C)(C)C)nc1 [I-305]
15 | < 50% | > 100 nM | 50 to 70% | > 100 nM | < 50% | > 100 nM | C (C (10-100 fold)) | – | – | – | C#Cc1ccc(CNC(=O)[C@@H]2C[C@@H](O)CN2C(=O)[C@@H](N(C)C(=O)N2CC3(CC(N4CCC(c5cnc(N6CCc7[nH]c8nnc(-c9ccccc9O)cc8c7[C@H]6C)nc5)CC4)C3)C2)C(C)(C)C)cc1 [I-139]
